Measured values published in ChEMBL document CHEMBL4837181 (Eur J Med Chem, 2020).
Values belong to the compound of their own block, whether it stands above or below them.

Key:
[1] = Volume of distribution in female cynomolgus monkey at 15 mg/kg, iv measured on day 1; format: ADME, organism-based, Macaca fascicularis; conditions: in vivo
[2] = Apparent oral clearance in male cynomolgus monkey at 225 mg/kg, po measured on day 1; format: ADME, organism-based, Macaca fascicularis; conditions: in vivo
[3] = Half life in mouse at 20 to 900 mg/kg, po; format: ADME, organism-based; conditions: in vivo, dose 20-900 mg/kg
[4] = Cmax in po BID dosed cynomolgus monkey administered for 28 days; format: ADME, organism-based, Macaca fascicularis; parameters: route oral, time 28 day; conditions: in vivo
[5] = AUC (0 to 24 hrs) in female cynomolgus monkey at 15 mg/kg, iv measured on day 1; format: ADME, organism-based, Macaca fascicularis; parameters: time < 24 hr, route intravenous, dose 15 mg/kg; conditions: in vivo
[6] = Half life in female cynomolgus monkey at 225 mg/kg, po measured on day 1; format: ADME, organism-based, Macaca fascicularis; conditions: in vivo
[7] = Oral bioavailability in rat; format: ADME, organism-based; conditions: in vivo
[8] = Half life in female cynomolgus monkey at 75 mg/kg, po measured on day 1; format: ADME, organism-based, Macaca fascicularis; conditions: in vivo
[9] = Solubility of compound at pH 1; format: physicochemical; conditions: buffer
[10] = Cmax in human up to 1200 mg administered bid; format: ADME; parameters: dose <=1200
[11] = Change in normalised AUC (infinity) in rat at 50 mg/kg, po measured upto 72 hrs by LC-MS/MS analysis; format: ADME, organism-based; conditions: in vivo
[12] = Half life in male cynomolgus monkey at 225 mg/kg, po measured on day 1; format: ADME, organism-based, Macaca fascicularis; conditions: in vivo
[13] = Change in AUC(infinity) in rat at 185 umol/kg, po measured upto 72 hrs by LC-MS/MS analysis; format: ADME, organism-based; conditions: in vivo, at 185 µmol/kg
[14] = AUC (0 to 24 hrs) at steady state in […] at 1200 mg, BID; format: ADME; parameters: time < 24 hr, dose 1200 mg; conditions: in vivo
[15] = Drug metabolism in human hepatocytes assessed as unmetabolized compound at 10 uM incubated for 120 mins by UPLC-QTOF-PDA analysis; format: ADME, cell-based, Hepatocyte; conditions: read-out: Drug metabolism
[16] = Oral bioavailability in male cynomolgus monkey at 275 micromol/kg; format: ADME, organism-based, Macaca fascicularis; conditions: in vivo, at 275 µmol/kg
[17] = Lipophilicity, logD of compound; format: physicochemical; conditions: octanol/water
[18] = Toxicity in rat assessed as abnormal respiratory sounds at 150 to 180 mg/kg, po; format: organism-based; conditions: in vivo, dose 150-180 mg/kg
[19] = Drug metabolism in cynomolgus monkey assessed as formation of M9 metabolite at 15 mg/kg, iv administered as single dose; format: ADME, organism-based, Macaca fascicularis; conditions: in vivo
[20] = Drug metabolism in cynomolgus monkey assessed as ratio of indoximod to parent compound at 15 mg/kg, iv administered as single dose; format: ADME, organism-based, Macaca fascicularis; conditions: in vivo
[21] = Stability in rat plasma assessed as parent compound remaining measured after 2 hrs by LC-MS/MS analysis; format: ADME, cell-free; conditions: read-out: Stabilty
[22] = Apparent oral clearance in male cynomolgus monkey at 75 mg/kg, po BID measured on day 8; format: ADME, organism-based, Macaca fascicularis; conditions: in vivo
[23] = Toxicity in monkey assessed as change in respiratory parameter; parameters: species or system Macaca mulatta; conditions: rhesus monkey, in vivo
[24] = Drug metabolism in cynomolgus monkey assessed as indoximod formation of by measuring indoximod Tmax at 75 to 675 mg/kg, po administered as single dose; format: ADME, organism-based, Macaca fascicularis; conditions: in vivo, dose 75-675 mg/kg
[25] = Cmax in female rat at 180 mg/kg, po BID measured on day 28; format: ADME, organism-based; parameters: route oral, dose 180 mg/kg; conditions: in vivo
[26] = Cmax in male rat at 150 mg/kg, po BID measured on day 28; format: ADME, organism-based; parameters: route oral, dose 150 mg/kg; conditions: in vivo
[27] = Genotoxicity in monkey; format: toxicity, Macaca mulatta; conditions: rhesus monkey
[28] = Drug metabolism in cynomolgus monkey assessed as indoximod formation of by measuring indoximod Tmax at 15 mg/kg, iv administered as single dose; format: ADME, organism-based, Macaca fascicularis; conditions: in vivo
[29] = Toxicity in cynomolgus monkey assessed as NOAEL at 150 mg/kg, po BID administered for 28 days; format: organism-based, Macaca fascicularis; conditions: in vivo, time 28 day
[30] = Drug metabolism in cynomolgus monkey assessed as indoximod formation by measuring indoximod Tmax at 75 to 375 mg/kg, po BID; format: ADME, organism-based, Macaca fascicularis; conditions: in vivo, dose 75-375 mg/kg
[31] = Toxicity in rat assessed as mortality at 150 to 180 mg/kg, po; format: organism-based; conditions: in vivo, dose 150-180 mg/kg
Cytochrome P450 2C8 = target: T1, Cytochrome P450 2C8 (Homo sapiens, UniProt P10632); assay: Inhibition of CYP2C8 in human hepatocytes; format: ADME, cell-based, Hepatocyte
T1 sequence (P10632 whole entry): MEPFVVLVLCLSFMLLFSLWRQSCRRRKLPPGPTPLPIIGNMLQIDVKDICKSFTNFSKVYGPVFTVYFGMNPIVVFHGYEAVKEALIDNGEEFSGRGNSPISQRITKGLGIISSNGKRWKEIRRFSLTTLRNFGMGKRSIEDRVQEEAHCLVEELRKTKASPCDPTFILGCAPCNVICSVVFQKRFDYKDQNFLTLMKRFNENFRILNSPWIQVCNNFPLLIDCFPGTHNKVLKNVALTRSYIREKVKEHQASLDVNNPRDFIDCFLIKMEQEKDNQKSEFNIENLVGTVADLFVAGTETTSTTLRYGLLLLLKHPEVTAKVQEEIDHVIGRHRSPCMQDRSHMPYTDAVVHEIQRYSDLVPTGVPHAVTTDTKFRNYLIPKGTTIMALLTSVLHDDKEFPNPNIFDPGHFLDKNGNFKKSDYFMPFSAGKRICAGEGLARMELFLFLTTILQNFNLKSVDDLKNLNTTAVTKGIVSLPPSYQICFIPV

[32] = Protein binding in human plasma; format: ADME, cell-free; conditions: read-out: PPB
[33] = Toxicity in rat assessed as distended abdomen at 150 to 180 mg/kg, po; format: organism-based; conditions: in vivo, dose 150-180 mg/kg
CYP3A4 = CYP3A4 (Homo sapiens, UniProt P08684); assay: Time dependent inhibition of CYP3A4 in human hepatocytes assessed as fold shift relative to control; format: ADME, cell-based, Hepatocyte; conditions: read-out: FC
CYP3A4, sequence (P08684 whole entry): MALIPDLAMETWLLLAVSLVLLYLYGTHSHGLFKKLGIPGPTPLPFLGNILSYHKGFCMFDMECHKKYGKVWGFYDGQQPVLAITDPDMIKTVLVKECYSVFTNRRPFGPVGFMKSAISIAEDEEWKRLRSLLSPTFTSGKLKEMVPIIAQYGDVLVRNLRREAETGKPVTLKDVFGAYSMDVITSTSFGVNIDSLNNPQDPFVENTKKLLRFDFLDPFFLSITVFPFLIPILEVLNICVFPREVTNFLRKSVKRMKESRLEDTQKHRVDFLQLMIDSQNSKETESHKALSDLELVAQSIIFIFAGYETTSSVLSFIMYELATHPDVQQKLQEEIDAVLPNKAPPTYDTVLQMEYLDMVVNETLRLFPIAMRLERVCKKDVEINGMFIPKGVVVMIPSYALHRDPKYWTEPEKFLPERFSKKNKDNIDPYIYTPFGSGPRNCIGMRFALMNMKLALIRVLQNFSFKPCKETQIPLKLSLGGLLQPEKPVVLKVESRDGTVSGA

[34] = Toxicity in monkey assessed as change in behavioral parameter; parameters: species or system Macaca mulatta; conditions: rhesus monkey, in vivo

Vd [1]: 0.9 L/kg
CL/F [2]: 22.1 mL/min/kg
half-life [3]: 2.2 h
Cmax [4]: 103 µM
AUC(0-t) at 24 h [5]: 70.6 µM·h
half-life [6]: 3.8 h
bioavailability [7]: 50%
half-life [8]: 1.8 h
solubility [9]: > 20 mg/mL
Cmax [10]: 13.7 µM
Activity [11]: 0%
half-life [12]: 2.9 h
Activity [13]: 0%
AUC at 24 h [14]: 240 µM·h
SMILES: Cn1cc(C[C@@H](N)C(=O)O)c2ccccc21 [INDOXIMOD]

SMILES: CCOC(=O)[C@@H](Cc1cn(C)c2ccccc12)NC(=O)[C@@H](N)CC(C)C.Cl
remaining at 2 h, 10 µM [15]: 0.9%
F [16]: 10%
logD [17]: 2.3
Activity [18]: Toxic
Drug metabolism [19]: Metabolite_Detected
Ratio [20]: 690
remaining at 2 h [21]: 0%
CL/F [22]: 25.6 mL/min/kg
Activity [23]: Non-Toxic
Tmax [24]: 1 h
Cmax [25]: 170 µM
Cmax [26]: 169 µM
Activity [27]: Non-Toxic
Tmax [28]: 1 h
NOAEL at 672 h [29]: 120 mg/kg
Tmax [30]: 1 h
Activity [31]: Toxic
IC50 (Cytochrome P450 2C8): > 50 µM
fraction unbound [32]: 0.5
Activity [33]: Toxic
IC50 shift (CYP3A4): 7
Activity [34]: Non-Toxic
